Assays:
Miapaca-2 cells [1] = assay: Cell proliferation MTS assay, Miapaca-2; type: cell-based; conditions: Homo sapiens, MIA PaCa-2, 72 h
Method: (§1) Assays of cell proliferation and clonogenicity. Cells were seeded at 2000 cells/well in 96-well plates and treated at 37° C. for 72 h before MTS [3-(4,5-dimethylthiazol-2-yl)-5-(3-carboxymethoxyphenyl)-2-(4-sulfophenyl)-2H- tetrazolium] assay. The proportion of viable cells was normalized to that of untreated cells and expressed as mean±standard error of the mean (n=6). […] Cells were seeded at 1000 cells per 10-cm plate in growth medium overnight and treated at 37° C. for 10 days. At the end of this 10-day period, colonies were fixed with formalin and stained with crystal violet. Colonies with more than 20 cells were counted.

Miapaca-2 cells [2] = assay: Clonogenicity assay, Miapaca-2; type: cell-based, human; conditions: 3 μM, 10 days, vs no treatment
Method: as §1

L3.6pl cells = assay: Cell proliferation MTS assay, L3.6pl; type: cell-based; conditions: Homo sapiens, 72 h
Method: as §1

HPSCs = assay: Cell proliferation MTS assay, HPSCs; type: cell-based; conditions: 72 h, read-out: IC50, HPSC proliferation
Method: as §1

Panc-1 cells = assay: Cell proliferation MTS assay, Panc-1; type: cell-based; conditions: Homo sapiens, 72 h
Method: as §1

[3] = system: spontaneous PDAC of KPC-luc mice; assay: Survival study in KPC-luc mice; type: in vivo; conditions: KPC-luc mice enrolled at 95 to 100 days of age; CTL 139 days
Method: FIG. 22: Antitumor efficacy of M-CPA/PTX in a transgenic mice model with spontaneous PDAC in the pancreas of KPC-Luc mice. Mice with positive bioluminescence signals were enrolled at 95 to 100 days of age. M-CPA/PTX was given at 5 mg/kg/drug per injection. The treatment schedule was: 3 intravenous injections per week for the first 2 weeks, followed by 2 intraperitoneal injections per week until death or 90 days from the initiation of treatment. Untreated mice were kept as control (CTL). Gemcitabine and abraxane were used as the standard therapies. Gemcitabine was intraperitoneally injected at 100 mg/kg every other day until death. Abraxane was given at 5 mg/kg/injection following the same schedule as M-CPA/PTX.
The genetically engineered mouse model of PDAC (the KPC-luc mouse model) was also used to test for the antitumor efficacy of drug-loaded micelles on tumors in a survival study. […] The mice were assigned into four different groups: (1) mice with untreated […] (control group), (2) mice intravenously injected gemcitabine at 100 mg/kg every other day until death, (3) mice given Abraxane at 5 mg/kg/injection, and (4) M-CPA/PTX given at 5 mg/kg/drug per injection. […]

Row | Structure (SMILES) | IC50 (Miapaca-2 cells [1]) [µM] | reduction of the number of colonies (Miapaca-2 cells [2]) [%] | IC50 (L3.6pl cells) [µM] | IC50 (HPSCs) [µM] | IC50 (Panc-1 cells) [µM] | median survival [3] [days]
1 | CC1=C2C[C@H]3[C@@H](CC=C4C[C@@H](O)CC[C@@]43C)[C@@H]2CC[C@]12O[C@@H]1C[C@H](C)CN[C@H]1[C@H]2C [CPA, cyclopamine] | 10.2 ± 0.1 | 18.2±1.3 | 16 ± 1.5 | 13.3 ± 1.2 | ~163 | –
2 | CC(=O)O[C@H]1C(=O)[C@@]2(C)[C@H]([C@H](OC(=O)c3ccccc3)[C@]3(O)C[C@H](OC(=O)[C@H](O)[C@@H](NC(=O)c4ccccc4)c4ccccc4)C(C)=C1C3(C)C)[C@]1(OC(C)=O)CO[C@@H]1C[C@@H]2O [PTX, paclitaxel] | 0.0012 ± 0.0001 | – | 0.0014 ± 0.0001 | – | 0.0024 ± 0.0004 | –
3 | Nc1ccn([C@@H]2O[C@H](CO)[C@@H](O)C2(F)F)c(=O)n1 [gemcitabine] | – | – | – | – | – | 167
